Reference: ChEMBL document CHEMBL1123223, “New effective gonadotropin releasing hormone antagonists with minimal potency for histamine release in vitro” (J Med Chem, 1986)
Values after ≈ are worked out from the molar mass of the structure shown. Each block holds one molecule with its values, some of them ahead of it.

Legend:
Rattus norvegicus [1] = species: Rattus norvegicus; experiment: GnRH antagonistic dose of compound for 8 rats ovulation out of total 10 using anti-ovulatory assay; format: functional
Rattus norvegicus [2] = species: Rattus norvegicus; experiment: Dissociation constant was determined in rat pituitary cells.; format: cell-based; conditions: pituitary gland cell
Rattus norvegicus [3] = species: Rattus norvegicus; experiment: Compound was tested in vitro for its ability to inhibit histamine release from rat mast cells.; format: functional; conditions: read-out: ED50 (the source's name)
[4] = biological target: T1, Gonadotropin-releasing hormone receptor (Rattus norvegicus) (UniProt P30969); experiment: Inhibition of GnRH-mediated LH secretion by cultured pituitary cells; format: functional, cell-based; conditions: Pituitary gland cell
T1 sequence (whole entry): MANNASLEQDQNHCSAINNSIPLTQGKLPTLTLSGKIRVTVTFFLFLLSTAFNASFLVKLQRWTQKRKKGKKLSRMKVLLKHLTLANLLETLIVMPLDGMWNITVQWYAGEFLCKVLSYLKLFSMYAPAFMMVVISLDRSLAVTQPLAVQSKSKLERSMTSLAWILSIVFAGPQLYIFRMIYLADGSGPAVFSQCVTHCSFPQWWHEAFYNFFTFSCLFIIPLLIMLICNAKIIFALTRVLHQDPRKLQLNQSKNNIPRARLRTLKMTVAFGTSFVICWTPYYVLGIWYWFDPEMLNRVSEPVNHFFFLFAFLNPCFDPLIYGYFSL

Rattus norvegicus [5] = species: Rattus norvegicus; experiment: Compound was evaluated for time course of action on LH secretion in the castrated male rat at a time interval of 1 hr at 125 microg; format: functional
Rattus norvegicus [6] = species: Rattus norvegicus; experiment: Compound was evaluated for time course of action on LH secretion in the castrated male rat at a time interval of 73 hr at 125 microg; format: functional
Rattus norvegicus [7] = species: Rattus norvegicus; experiment: GnRH antagonistic dose of compound for 8 rats ovulation out of total 16 using anti-ovulatory assay in experiment 1; format: functional
Rattus norvegicus [8] = species: Rattus norvegicus; experiment: Compound was evaluated for time course of action on LH secretion in the castrated male rat at a time interval of 0 hr at 125 microg; format: functional
Rattus norvegicus [9] = species: Rattus norvegicus; experiment: GnRH antagonistic dose of compound for 0 rats ovulation out of total 10 using anti-ovulatory assay in experiment 1; format: functional
Rattus norvegicus [10] = species: Rattus norvegicus; experiment: Compound was evaluated for time course of action on LH secretion in the castrated male rat at a time interval of 49 hr at 125 microg; format: functional
Rattus norvegicus [11] = species: Rattus norvegicus; experiment: Compound was evaluated for time course of action on LH secretion in the castrated male rat at a time interval of 43 hr at 125 microg; format: functional
Rattus norvegicus [12] = species: Rattus norvegicus; experiment: Compound was evaluated for time course of action on LH secretion in the castrated male rat at a time interval of 67 hr at 125 microg; format: functional
Rattus norvegicus [13] = species: Rattus norvegicus; experiment: Compound was evaluated for time course of action on LH secretion in the castrated male rat at a time interval of 19 hr at 125 microg; format: functional
Rattus norvegicus [14] = species: Rattus norvegicus; experiment: GnRH antagonistic dose of compound for 7 rats ovulation out of total 20 using anti-ovulatory assay; format: functional
Rattus norvegicus [15] = species: Rattus norvegicus; experiment: Compound was evaluated for time course of action on LH secretion in the castrated male rat at a time interval of 0 hr at 25 microg; format: functional
Rattus norvegicus [16] = species: Rattus norvegicus; experiment: Compound was evaluated for time course of action on LH secretion in the castrated male rat at a time interval of 73 hr at 25 microg; format: functional
Rattus norvegicus [17] = species: Rattus norvegicus; experiment: Compound was evaluated for time course of action on LH secretion in the castrated male rat at a time interval of 1 hr at 25 microg; format: functional
Rattus norvegicus [18] = species: Rattus norvegicus; experiment: Compound was evaluated for time course of action on LH secretion in the castrated male rat at a time interval of 67 hr at 25 microg; format: functional
Rattus norvegicus [19] = species: Rattus norvegicus; experiment: Compound was evaluated for time course of action on LH secretion in the castrated male rat at a time interval of 49 hr at 25 microg; format: functional
Rattus norvegicus [20] = species: Rattus norvegicus; experiment: Compound was evaluated for time course of action on LH secretion in the castrated male rat at a time interval of 49 h at 125 microg; format: functional
Rattus norvegicus [21] = species: Rattus norvegicus; experiment: Compound was evaluated for time course of action on LH secretion in the castrated male rat at a time interval of 43 hr at 25 microg; format: functional
Rattus norvegicus [22] = species: Rattus norvegicus; experiment: Compound was evaluated for time course of action on LH secretion in the castrated male rat at a time interval of 19 hr at 25 microg; format: functional
Rattus norvegicus [23] = species: Rattus norvegicus; experiment: GnRH antagonistic dose of compound for 10 rats ovulation out of total 10 using anti-ovulatory assay; format: functional
Rattus norvegicus [24] = species: Rattus norvegicus; experiment: GnRH antagonistic dose of compound for 9 rats ovulation out of total 10 using anti-ovulatory assay; format: functional

EC50 (Rattus norvegicus [3]): 1.9 µg/mL (≈ 1.3 µM) | Relative potency [4]: 0.88
SMILES: CC(=O)N[C@H](Cc1ccc2ccccc2c1)C(=O)N[C@H](Cc1ccc(Cl)cc1)C(=O)N[C@H](Cc1cccnc1)C(=O)N[C@@H](CO)C(=O)N[C@@H](CCCN=C(N)N)C(=O)N[C@H](Cc1ccc2ccccc2c1)C(=O)N[C@@H](CC(C)C)C(=O)N[C@@H](CCCN=C(N)N)C(=O)N1CCC[C@@H]1C(=O)N[C@H](C)C(=O)O
ED100 (Rattus norvegicus [1]): 1 µg/kg | Kd (Rattus norvegicus [2]): 5 nM

EC50 (Rattus norvegicus [3]): 1.6 µg/mL (≈ 1.08 µM) | Relative potency [4]: 1.01
SMILES: COc1ccc(C(=O)CC[C@@H](NC(=O)[C@H](CCCN=C(N)N)NC(=O)[C@H](CO)NC(=O)[C@@H](Cc2cccnc2)NC(=O)[C@@H](Cc2ccc(Cl)cc2)NC(=O)[C@@H](Cc2ccc3ccccc3c2)NC(C)=O)C(=O)N[C@@H](CC(C)C)C(=O)N[C@@H](CCCN=C(N)N)C(=O)N2CCC[C@H]2C(=O)N[C@H](C)C(=O)O)cc1
LH level (Rattus norvegicus [5]): 6.31 ng/mL | LH level (Rattus norvegicus [6]): 5.06 ng/mL | ED100 (Rattus norvegicus [7]): 0.5 µg/kg | LH level (Rattus norvegicus [8]): 13.38 ng/mL | Kd (Rattus norvegicus [2]): 0.67 nM | ED100 (Rattus norvegicus [9]): 1.5 µg/kg | LH level (Rattus norvegicus [10]): 2.94 ng/mL | LH level (Rattus norvegicus [11]): 3.27 ng/mL | LH level (Rattus norvegicus [12]): 3.67 ng/mL | LH level (Rattus norvegicus [13]): 3.68 ng/mL

EC50 (Rattus norvegicus [3]): 2.7 µg/mL (≈ 1.8 µM) | Relative potency [4]: 1.16
SMILES: CC(=O)N[C@H](Cc1ccc2ccccc2c1)C(=O)N[C@H](Cc1ccc(Cl)cc1)C(=O)N[C@H](Cc1cccnc1)C(=O)N[C@@H](CO)C(=O)N[C@@H](CCCN=C(N)N)C(=O)N[C@H](Cc1c[nH]c2cc([N+](=O)[O-])ccc12)C(=O)N[C@@H](CC(C)C)C(=O)N[C@@H](CCCN=C(N)N)C(=O)N1CCC[C@H]1C(=O)N[C@H](C)C(=O)O
Kd (Rattus norvegicus [2]): 0.63 nM | ED100 (Rattus norvegicus [14]): 0.5 µg/kg

SMILES: CC(=O)N1CCC[C@@H]1C(=O)N[C@H](Cc1ccc(F)cc1)C(=O)N[C@H](Cc1c[nH]c2ccccc12)C(=O)N[C@@H](CO)C(=O)N[C@@H](CCCN=C(N)N)C(=O)N[C@H](Cc1ccc2ccccc2c1)C(=O)N[C@@H](CC(C)C)C(=O)N[C@@H](CCCN=C(N)N)C(=O)N1CCC[C@H]1C(=O)NCC(N)=O
LH level (Rattus norvegicus [15]): 10.25 ng/mL | LH level (Rattus norvegicus [5]): 6.17 ng/mL | LH level (Rattus norvegicus [6]): 4.58 ng/mL | LH level (Rattus norvegicus [16]): 9.15 ng/mL | LH level (Rattus norvegicus [8]): 12.47 ng/mL | LH level (Rattus norvegicus [17]): 5.68 ng/mL | LH level (Rattus norvegicus [18]): 8.23 ng/mL | LH level (Rattus norvegicus [19]): 5.46 ng/mL | LH level (Rattus norvegicus [20]): 2.5 ng/mL | LH level (Rattus norvegicus [21]): 4.38 ng/mL | LH level (Rattus norvegicus [11]): 2.63 ng/mL | LH level (Rattus norvegicus [12]): 2.74 ng/mL | LH level (Rattus norvegicus [13]): 3 ng/mL | LH level (Rattus norvegicus [22]): 2.78 ng/mL

EC50 (Rattus norvegicus [3]): 30.3 µg/mL (≈ 21.5 µM)
SMILES: COc1ccc(C(=O)CC[C@@H](NC(=O)[C@H](Cc2ccc(O)cc2)NC(=O)[C@H](CO)NC(=O)[C@@H](Cc2cccnc2)NC(=O)[C@@H](Cc2ccc(Cl)cc2)NC(=O)[C@H]2CCCN2C(C)=O)C(=O)N(C)[C@@H](CC(C)C)C(=O)N[C@@H](CCCN=C(N)N)C(=O)N2CCC[C@H]2C(=O)N[C@H](C)C(=O)O)cc1
ED100 (Rattus norvegicus [23]): 5 µg/kg

EC50 (Rattus norvegicus [3]): 17 µg/mL (≈ 12.2 µM)
SMILES: CC(=O)N[C@H](Cc1ccc2ccccc2c1)C(=O)N[C@H](Cc1ccc(Cl)cc1)C(=O)N[C@H](Cc1cccnc1)C(=O)N[C@@H](CO)C(=O)N[C@@H](CCCN=C(N)N)C(=O)N[C@H](CCC(=O)O)C(=O)N[C@@H](CC(C)C)C(=O)N[C@@H](CCCN=C(N)N)C(=O)N1CCC[C@H]1C(=O)N[C@H](C)C(=O)O
ED100 (Rattus norvegicus [24]): 10 µg/kg

EC50 (Rattus norvegicus [3]): 4.6 µg/mL (≈ 3.07 µM)
SMILES: COc1ccc(C(=O)CC[C@@H](NC(=O)[C@H](CCCN=C(N)N)NC(=O)[C@H](CO)NC(=O)[C@@H](Cc2cccnc2)NC(=O)[C@@H](Cc2ccc(Cl)cc2)NC(=O)[C@@H](Cc2ccc3ccccc3c2)NC(C)=O)C(=O)N(C)[C@@H](CC(C)C)C(=O)N[C@@H](CCCN=C(N)N)C(=O)N2CCC[C@H]2C(=O)N[C@H](C)C(N)=O)cc1
ED100 (Rattus norvegicus [1]): 1 µg/kg

Relative potency [4]: 0.13
SMILES: COc1ccc(C(=O)CC[C@@H](NC(=O)[C@H](Cc2ccc(O)cc2)NC(=O)[C@H](CO)NC(=O)[C@@H](Cc2cccnc2)NC(=O)[C@@H](Cc2ccc(Cl)cc2)NC(=O)[C@H]2CCCN2C(C)=O)C(=O)N(C)[C@@H](CC(C)C)C(=O)N[C@@H](CCCN=C(N)N)C(=O)N2CCC[C@@H]2C(=O)N[C@H](C)C(=O)O)cc1
Kd (Rattus norvegicus [2]): 0.31 nM
